The structures appear in SMILES notation.

Experiment [1] relates to Zymoseptoria tritici. The experiment in a line: Leaf blotch of wheat (SEPTTR) disease control on wheat seedlings. The experiment is classed as in vivo. The arrangement: key to SEPTTR 1DP, HV activity at 100 ppm (% control rating) / SEPTTR 3DC, HV activity at 100 ppm (% control rating) / SEPTTR disease control, 1DP / SEPTTR disease control, 3DC / SEPTTR 1DP disease control rating, HV activity / SEPTTR 3DC disease control rating, HV activity / SEPTTR 3DC, LV activity at 125.1 g/H (% Control rating) / SEPTTR 1DP, LV activity at 125.1 g/H (% Control rating) / SEPTTR 1DP disease control rating, LV activity at 125.1 g/H / SEPTTR 3DC disease control rating, LV activity at 125.1 g/H / SEPTTR 3DC disease control rating, HV activity at 100 ppm / SEPTTR 1DP disease control rating, HV activity at 100 ppm / HV activity at 100 ppm SEPTTR 3DC (disease control rating) / HV activity at 100 ppm SEPTTR 1DP (disease control rating) / LV activity at 125.1 g/H SEPTTR 1DP (disease control rating) / LV activity at 125.1 g/H SEPTTR 3DC (disease control rating): A: > 80; B: ≤ 80; C: Not Tested; D: No Activity Observed in the Reported Assay. The note with it: for SEPTTR 1DP, LV activity at 125.1 g/H (% Control rating) / SEPTTR 1DP disease control rating, HV activity / LV activity at 125.1 g/H SEPTTR 1DP (disease control rating): 1 Day Protectant; for SEPTTR 3DC, LV activity at 125.1 g/H (% Control rating) / SEPTTR 3DC disease control rating, HV activity / LV activity at 125.1 g/H SEPTTR 3DC (disease control rating): 3 Day Curative; for SEPTTR 1DP disease control rating, HV activity / SEPTTR 3DC disease control rating, HV activity: HV application at 100 ppm; for SEPTTR 1DP disease control rating, HV activity / SEPTTR 3DC disease control rating, HV activity / LV activity at 125.1 g/H SEPTTR 1DP (disease control rating) / LV activity at 125.1 g/H SEPTTR 3DC (disease control rating): wheat leaf blotch.

The subject of experiment [2] is Puccinia triticina. The experiment is described as follows: Wheat brown rust (PUCCRT) disease control on wheat seedlings. The experiment is classed as in vivo. The arrangement: key to PUCCRT 3DC, HV activity at 100 ppm (% control rating) / PUCCRT disease control, 3DC / PUCCRT 1DP disease control rating, HV activity / PUCCRT 3DC disease control rating, HV activity / PUCCRT 3DC, LV activity at 125.1 g/H (% Control rating) / PUCCRT 1DP, LV activity at 125.1 g/H (% Control rating) / PUCCRT 3DC disease control rating, LV activity at 125.1 g/H / PUCCRT 1DP disease control rating, LV activity at 125.1 g/H / PUCCRT 3DC disease control rating, HV activity at 100 ppm / PUCCRT 1DP disease control rating, HV activity at 100 ppm / HV activity at 100 ppm PUCCRT 3DC (disease control rating) / LV activity at 125.1 g/H PUCCRT 1DP (disease control rating) / LV activity at 125.1 g/H PUCCRT 3DC (disease control rating): A: > 80; B: ≤ 80; C: Not Tested; D: No Activity Observed in the Reported Assay. The note with it: for PUCCRT 1DP, LV activity at 125.1 g/H (% Control rating) / PUCCRT 1DP disease control rating, HV activity / LV activity at 125.1 g/H PUCCRT 1DP (disease control rating): 1 Day Protectant; for PUCCRT 3DC, LV activity at 125.1 g/H (% Control rating) / PUCCRT 3DC disease control rating, HV activity / LV activity at 125.1 g/H PUCCRT 3DC (disease control rating): 3 Day Curative; for PUCCRT 1DP disease control rating, HV activity / PUCCRT 3DC disease control rating, HV activity: HV application at 100 ppm; for PUCCRT 1DP disease control rating, HV activity / PUCCRT 3DC disease control rating, HV activity / LV activity at 125.1 g/H PUCCRT 1DP (disease control rating) / LV activity at 125.1 g/H PUCCRT 3DC (disease control rating): wheat brown rust.

Where [3] appears, read: low volume application, 125.1 g/H.
Where [4] appears, read: high volume application, 100 ppm, 1 day protectant.
Setting [5] is: high volume application, 100 ppm, 3 day curative.
Where [6] appears, read: low volume application, 125.1 g/H, 1 day protectant.
Setting [7] is: low volume application, 125.1 g/H, 3 day curative.

For the compound `CC[C@@H](CCC(C)C)[C@H](OCC1CC1)[C@H](C)OC(=O)[C@H](C)NC(=O)c1nccc(OC)c1OCOC(C)=O` [Cmpd 503], in experiment [1] (setting [3]), the “SEPTTR 1DP, LV activity at 125.1 g/H (% Control rating)” value (from here on “SEPTTR 1DP … (% Control rating)”) is listed as “B (≤ 80)” and the “SEPTTR 3DC, LV activity at 125.1 g/H (% Control rating)” value (shortened to “SEPTTR 3DC … (% Control rating)”) was “A (> 80)”. In experiment [2] (setting [3]), the “PUCCRT 1DP, LV activity at 125.1 g/H (% Control rating)” value (“PUCCRT 1DP … (% Control rating)” below) is “A (> 80)” and the “PUCCRT 3DC, LV activity at 125.1 g/H (% Control rating)” value (from here on “PUCCRT 3DC … (% Control rating)”) was “A (> 80)”.
Take `COc1ccnc(C(=O)NC(C)C(=O)OC(C)COc2ccccc2)c1OC(=O)C1CC1` (stereo not shown) [Cmpd 541]: in experiment [1] (setting [3]), the “SEPTTR 1DP … (% Control rating)” value is “B (≤ 80)” and the “SEPTTR 3DC … (% Control rating)” value is reported as “B (≤ 80)”. In experiment [2] (setting [3]), the “PUCCRT 1DP … (% Control rating)” value was “D” and the “PUCCRT 3DC … (% Control rating)” value is on record as “D”.
As to `COc1ccnc(C(=O)N[C@@H](C)C(=O)O[C@@H](C)[C@H](Oc2ccc3ccccc3c2)C(C)C)c1OC(C)=O` [Cmpd 632], in experiment [1] (setting [3]), the “SEPTTR 1DP … (% Control rating)” value is recorded as “D” and the “SEPTTR 3DC … (% Control rating)” value is on record as “D”. In experiment [2] (setting [3]), the “PUCCRT 1DP … (% Control rating)” value is reported as “A (> 80)” and the “PUCCRT 3DC … (% Control rating)” value is listed as “A (> 80)”.
Consider `COc1ccnc(C(=O)N[C@@H](C)C(=O)O[C@@H](C)[C@@H](Cc2ccccc2)OCC2CC2)c1O` [Cmpd 344], for which, in experiment [1], the “SEPTTR 1DP disease control rating, HV activity” value is given as “D” and the “SEPTTR 3DC disease control rating, HV activity” value is listed as “B (≤ 80)”. In experiment [2], the “PUCCRT 1DP disease control rating, HV activity” value is “B (≤ 80)” and the “PUCCRT 3DC disease control rating, HV activity” value is listed as “A (> 80)”.
Consider `COc1ccnc(C(=O)N[C@@H](C)C(=O)O[C@@H](C)[C@@H](CC(C)C)Oc2cc(F)ccc2F)c1OC(C)=O` [Cmpd 1114], for which, in experiment [1] (setting [3]), the “LV activity at 125.1 g/H SEPTTR 1DP (disease control rating)” value is reported as “A (> 80)” and the “LV activity at 125.1 g/H SEPTTR 3DC (disease control rating)” value is recorded as “A (> 80)”. For the same compound, in experiment [2] (setting [3]), the “LV activity at 125.1 g/H PUCCRT 1DP (disease control rating)” value is “A (> 80)” and the “LV activity at 125.1 g/H PUCCRT 3DC (disease control rating)” value is “A (> 80)”.
In the case of `COc1ccnc(C(=O)N[C@@H](C)C(=O)O[C@@H](C)[C@@H](CC(C)C)OCC2CC2)c1OC(C)=O` [Cmpd 1112], in experiment [1] (setting [3]), the “LV activity at 125.1 g/H SEPTTR 1DP (disease control rating)” value is recorded as “D” and the “LV activity at 125.1 g/H SEPTTR 3DC (disease control rating)” value is listed as “D”. In experiment [2] (setting [3]), the “LV activity at 125.1 g/H PUCCRT 1DP (disease control rating)” value is listed as “B (≤ 80)” and the “LV activity at 125.1 g/H PUCCRT 3DC (disease control rating)” value is on record as “A (> 80)”.
As to `CCC[C@@H](Oc1ccc(Cl)c(OC)c1)[C@H](C)OC(=O)[C@H](C)NC(=O)c1nccc(OC)c1O` [Cmpd 1008], the “SEPTTR 1DP disease control rating, HV activity at 100 ppm” value in experiment [1] (setting [4]) was “B (≤ 80)”. Besides, the “SEPTTR 3DC disease control rating, HV activity at 100 ppm” value in experiment [1] (setting [5]) is “B (≤ 80)”. Further, in experiment [2] (setting [4]), the “PUCCRT 1DP disease control rating, HV activity at 100 ppm” value was “B (≤ 80)”. Also, in experiment [2] (setting [5]), the “PUCCRT 3DC disease control rating, HV activity at 100 ppm” value is “B (≤ 80)”.
On to `COc1ccnc(C(=O)N[C@@H](C)C(=O)O[C@@H](C)[C@H](Oc2cccc3ccccc23)C(C)C)c1OC(C)=O` [Cmpd 631], for which, in experiment [1] (setting [3]), the “SEPTTR 1DP … (% Control rating)” value is on record as “B (≤ 80)” and the “SEPTTR 3DC … (% Control rating)” value was “D”. Besides, in experiment [2] (setting [3]), the “PUCCRT 1DP … (% Control rating)” value was “A (> 80)” and the “PUCCRT 3DC … (% Control rating)” value is “A (> 80)”.
`COc1ccnc(C(=O)NC(C(=O)OC(C)C(Oc2ccc3ccccc3c2)C(C)C)C(C)C)c1O` (stereo not shown) [Cmpd 401]: in experiment [1], the “SEPTTR 1DP disease control rating, HV activity” value is “B (≤ 80)” and the “SEPTTR 3DC disease control rating, HV activity” value is listed as “B (≤ 80)”. For the same compound, in experiment [2], the “PUCCRT 1DP disease control rating, HV activity” value is listed as “A (> 80)” and the “PUCCRT 3DC disease control rating, HV activity” value is on record as “B (≤ 80)”.
`CCC(CC)[C@H](Oc1cc(F)cc(Cl)c1)[C@H](C)OC(=O)[C@H](C)NC(=O)c1nccc(OC)c1OCOC(C)=O` [Cmpd 672]: in experiment [1] (setting [6]), the “SEPTTR 1DP disease control rating, LV activity at 125.1 g/H” value is “A (> 80)”. The “SEPTTR 3DC disease control rating, LV activity at 125.1 g/H” value in experiment [1] (setting [7]) is given as “B (≤ 80)”. Besides, in experiment [2] (setting [6]), the “PUCCRT 1DP disease control rating, LV activity at 125.1 g/H” value is listed as “A (> 80)”. The “PUCCRT 3DC disease control rating, LV activity at 125.1 g/H” value in experiment [2] (setting [7]) is reported as “B (≤ 80)”.
